Molecular target: T1, recombinant human FAAH (rhFAAH) (Homo sapiens, UniProt O00519)
T1 construct: purchased Cayman Chemical (Ann Arbor, MI, USA)
T1 sequence (O00519 1-579): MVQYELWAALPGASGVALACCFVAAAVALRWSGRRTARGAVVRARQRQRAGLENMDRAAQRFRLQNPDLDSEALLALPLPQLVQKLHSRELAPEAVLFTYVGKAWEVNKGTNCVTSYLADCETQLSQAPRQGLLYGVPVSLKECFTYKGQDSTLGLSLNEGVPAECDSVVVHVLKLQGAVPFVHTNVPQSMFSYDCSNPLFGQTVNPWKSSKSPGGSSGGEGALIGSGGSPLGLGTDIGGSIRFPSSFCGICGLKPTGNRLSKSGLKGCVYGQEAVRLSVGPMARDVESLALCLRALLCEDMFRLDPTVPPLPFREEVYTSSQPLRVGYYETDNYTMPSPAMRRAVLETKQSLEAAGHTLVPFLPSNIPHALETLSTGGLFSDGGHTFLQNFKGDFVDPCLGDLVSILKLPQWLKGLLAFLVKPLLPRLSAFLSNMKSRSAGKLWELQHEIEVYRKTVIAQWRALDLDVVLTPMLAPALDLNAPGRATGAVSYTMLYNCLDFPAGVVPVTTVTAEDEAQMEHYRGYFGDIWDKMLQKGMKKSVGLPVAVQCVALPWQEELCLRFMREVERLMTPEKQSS
Assay: FAAH substrate evaluation: formation of acid metabolite
Type: biochemical
Conditions: 0.5 ng/μL rhFAAH, 1 μM test compound, room temperature, pH 8.0, 0-60 minutes
Method: Purified recombinant human FAAH (rhFAAH) was purchased from Cayman Chemical (Ann Arbor, MI, USA). The total volume for each incubation was 400 μL containing a final 0.5 ng/μL rhFAAH, 1 μM test compound, 1.25% ethanol or 1 μM PF-3845 (FAAH inhibitor), and 0.1% bovine serum albumin in Tris-EDTA buffer at pH 8.0). The positive control was LL-341001. The incubation was conducted at the room temperature. At 0, 5, 15, 30 and 60 minutes, an aliquot of 30 μL reaction mixtures was removed and mixed with 300 μL acetonitrile containing 5 ng/mL terfenadine and 10 ng/mL tolbutamide as internal standards to quench the reaction. The resulting mixture was centrifuged at 4000 rpm, 4° C. for 15 minutes, and 100 μL supernatant was ready for LC-MS/MS analysis to measure the formation of acid metabolite.
Acquity Ultra Performance LC system from Waters was used for sample analysis. The chromatography was performed on a reverse phase Kinetex 2.6 μm C18 column, 2.1×30 mm, 100 Å. The mobile phase A comprised of 0.1% formic acid in water and mobile phase B comprised of 0.1% formic acid in acetonitrile with a 2-min run time at the flow rate of 0.8 mL/min for the acid metabolite from positive control or a 1.5 min run time at the flow rate of 0.9 mL/min for the acid metabolite of test compounds. The mass spectrometer (API-5500 and API Q Trap 4000 Applied Biosystems/MDS SCIEX Instruments, Framingham, MA, USA) was operated under ESI positive or negative ion MRM mode.
The formation of acid metabolite was monitored and quantified using one calibration point of 1 μM. The observed rate constant (ke) for the acid metabolite formation was calculated by plotting the metabolite concentration versus time of incubation with the slope being ke and is shown in Table 1.

Structure (SMILES)	ke (observed rate constant for the acid metabolite formation)
COc1ccc(NC(=O)COc2cc(Cl)c(Cc3ccc(O)c(C(C)C)c3)c(Cl)c2)cn1 [Compound 101]	A (A = ke is more than or equal to 0.1)
CC(C)c1cc(Cc2c(Cl)cc(OCC(=O)N3CCOCC3)cc2Cl)ccc1O [Compound 133]	A (A = ke is more than or equal to 0.1)
CONC(=O)COc1cc(Cl)c(Cc2ccc(O)c(C(C)C)c2)c(Cl)c1 [Compound 28]	A (A = ke is more than or equal to 0.1)
CC(C)c1cc(Cc2c(Cl)cc(OCC(=O)NC[C@@H](C)O)cc2Cl)ccc1O [Compound 7]	B (B = ke is less than 0.1 and more than 0)
CC(C)c1cc(Cc2c(Cl)cc(OCC(=O)N[C@@H]3C[C@@H]3F)cc2Cl)ccc1O [Compound 111]	A (A = ke is more than or equal to 0.1)
CC(C)c1cc(Cc2c(Cl)cc(OCC(=O)N3CCC3)cc2Cl)ccc1O [Compound 118]	B (B = ke is less than 0.1 and more than 0)
CC(C)c1cc(Cc2c(Cl)cc(OCC(=O)N3CCCC3)cc2Cl)ccc1O [Compound 117]	B (B = ke is less than 0.1 and more than 0)
C=CCNC(=O)COc1cc(Cl)c(Cc2ccc(O)c(C(C)C)c2)c(Cl)c1 [Compound 4]	A (A = ke is more than or equal to 0.1)
CCN(C)C(=O)COc1cc(Cl)c(Cc2ccc(O)c(C(C)C)c2)c(Cl)c1 [Compound 130]	B (B = ke is less than 0.1 and more than 0)
CC(C)c1cc(Cc2c(Cl)cc(OCC(=O)N[C@@H](C)CO)cc2Cl)ccc1O [Compound 10]	A (A = ke is more than or equal to 0.1)
CC(C)c1cc(Cc2c(Cl)cc(OCC(=O)Nc3cccc(F)c3)cc2Cl)ccc1O [Compound 25]	A (A = ke is more than or equal to 0.1)
CC(C)c1cc(Cc2c(Cl)cc(OCC(=O)NCCS(=O)O)cc2Cl)ccc1O [Compound 13]	B (B = ke is less than 0.1 and more than 0)
CC(C)c1cc(Cc2c(Cl)cc(OCC(=O)NCCc3ccccc3)cc2Cl)ccc1O [Compound 23]	B (B = ke is less than 0.1 and more than 0)
CC(C)NC(=O)COc1cc(Cl)c(Cc2ccc(O)c(C(C)C)c2)c(Cl)c1 [Compound 126]	A (A = ke is more than or equal to 0.1)
CC(C)c1cc(Cc2c(Cl)cc(OCC(=O)NC(C)(C)C)cc2Cl)ccc1O [Compound 119]	C (C = ke is 0)
CC(C)c1cc(Cc2c(Cl)cc(OCC(=O)NC3CC3)cc2Cl)ccc1O [Compound 17]	A (A = ke is more than or equal to 0.1)
CNC(=O)COc1cc(F)c(Cc2ccc(O)c(C(C)C)c2)c(Cl)c1F [Compound 42]	A (A = ke is more than or equal to 0.1)
C=CCN(C)C(=O)COc1cc(Cl)c(Cc2ccc(O)c(C(C)C)c2)c(Cl)c1 [Compound 128]	B (B = ke is less than 0.1 and more than 0)
CC(C)c1cc(Cc2c(Cl)cc(OCC(=O)NCCO)cc2Cl)ccc1O [Compound 6]	A (A = ke is more than or equal to 0.1)
CC(C)c1cc(Cc2c(Cl)cc(OCC(=O)Nc3ccccc3O)cc2Cl)ccc1O [Compound 20]	A (A = ke is more than or equal to 0.1)
CC(C)c1cc(Cc2c(Cl)cc(OCC(=O)N[C@H](C)CO)cc2Cl)ccc1O [Compound 9]	A (A = ke is more than or equal to 0.1)
CC(C)c1cc(Cc2c(Cl)cc(OCC(=O)Nc3cccnc3)cc2Cl)ccc1O [Compound 114]	A (A = ke is more than or equal to 0.1)
CC(C)c1cc(Cc2c(Cl)cc(OCC(=O)Nc3cccnn3)cc2Cl)ccc1O [Compound 104]	A (A = ke is more than or equal to 0.1)

Structure (SMILES)	ke (observed rate constant for the acid metabolite formation)
CCCN(C)C(=O)COc1cc(Cl)c(Cc2ccc(O)c(C(C)C)c2)c(Cl)c1 [Compound 129]	B (B = ke is less than 0.1 and more than 0)
CC(C)c1cc(Cc2c(Cl)cc(OCC(=O)NCC(F)F)cc2Cl)ccc1O [Compound 15]	A (A = ke is more than or equal to 0.1)
CC(C)c1cc(Cc2c(Cl)cc(OCC(=O)NC3CCCCC3)cc2Cl)ccc1O [Compound 105]	C (C = ke is 0)
CNC(=O)COc1cc(Cl)c(Cc2ccc(O)c(C(C)C)c2)c(Cl)c1F [Compound 37]	B (B = ke is less than 0.1 and more than 0)
CC(C)CN(C)C(=O)COc1cc(Cl)c(Cc2ccc(O)c(C(C)C)c2)c(Cl)c1 [Compound 120]	C (C = ke is 0)
CC(C)c1cc(Cc2c(Cl)cc(OCC(=O)N(C)CCO)cc2Cl)ccc1O [Compound 123]	B (B = ke is less than 0.1 and more than 0)
CC#CCNC(=O)COc1cc(Cl)c(Cc2ccc(O)c(C(C)C)c2)c(Cl)c1 [Compound 106]	B (B = ke is less than 0.1 and more than 0)
Cc1noc(NC(=O)COc2cc(Cl)c(Cc3ccc(O)c(C(C)C)c3)c(Cl)c2)c1C [Compound 103]	A (A = ke is more than or equal to 0.1)
C#CCNC(=O)COc1cc(Cl)c(Cc2ccc(O)c(C(C)C)c2)c(Cl)c1 [Compound 5]	A (A = ke is more than or equal to 0.1)
CC(C)c1c(O)ccc(Cc2c(Cl)cc(OCC(=O)NN(C)C)cc2Cl)c1F [Compound 45]	A (A = ke is more than or equal to 0.1)
CC(C)c1cc(Cc2c(Cl)cc(OCC(=O)Nc3cnccn3)cc2Cl)ccc1O [Compound 102]	A (A = ke is more than or equal to 0.1)
CC(C)c1cc(Cc2c(Cl)cc(OCC(=O)NN)cc2Cl)ccc1O [Compound 27]	A (A = ke is more than or equal to 0.1)
CCN(C)C(=O)COc1cc(Cl)c(Cc2ccc(O)c(C(C)C)c2F)c(Cl)c1 [Compound 34]	C (C = ke is 0)
CC(C)c1cc(Cc2c(Cl)cc(OCC(=O)N(C)CC(F)(F)F)cc2Cl)ccc1O [Compound 131]	B (B = ke is less than 0.1 and more than 0)
CC(C)c1cc(Cc2c(Cl)cc(OCC(=O)NCCCF)cc2Cl)ccc1O [Compound 112]	A (A = ke is more than or equal to 0.1)
CC(C)c1cc(Cc2c(Cl)cc(OCC(=O)NCc3ccccc3)cc2Cl)ccc1O [Compound 22]	A (A = ke is more than or equal to 0.1)
CC(C)c1c(O)ccc(Cc2c(Cl)cc(OCC(=O)N(C)C)c(F)c2Cl)c1F [Compound 40]	B (B = ke is less than 0.1 and more than 0)
CC(C)c1cc(Cc2c(Cl)cc(OCC(=O)NO)cc2Cl)ccc1O [Compound 26]	A (A = ke is more than or equal to 0.1)
CC(C)c1cc(Cc2c(Cl)cc(OCC(=O)NCC#N)cc2Cl)ccc1O [Compound 29]	A (A = ke is more than or equal to 0.1)
CC(C)c1cc(Cc2c(Cl)cc(OCC(=O)NC3COC3)cc2Cl)ccc1O [Compound 18]	A (A = ke is more than or equal to 0.1)
CC(C)c1cc(Cc2c(Cl)cc(OCC(=O)NCCF)cc2Cl)ccc1O [Compound 14]	A (A = ke is more than or equal to 0.1)
CC(C)c1cc(Cc2c(Cl)cc(OCC(=O)NC(CO)CO)cc2Cl)ccc1O [Compound 11]	B (B = ke is less than 0.1 and more than 0)
CC(C)c1c(O)ccc(Cc2c(Cl)cc(OCC(=O)Nc3cncnc3)cc2Cl)c1F [Compound 109]	A (A = ke is more than or equal to 0.1)

Source: patent US20250302775A1, “METHODS FOR THE TREATMENT OF DEPRESSION” (Autobahn Therapeutics, Inc., priority 2022, published 2025)
